# Reference: patent US20120029187A1, “HALOALKYLSULFONANILIDE DERIVATIVE” (Nissan Chemical Industries, Ltd., priority 2009, published 2012)
# Key:
# Format in all cases: in vivo
# [1] = tested on: common chickweed; test: Test Example 4: herbicidal effect in foliage treatment; settings: dose 6.3 g/a, three weeks after application
# Outline: (§1)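 Sowing in sterilized diluvial soil, ~1.5 cm cover; growth 14 d, 25–30° C greenhouse; foliar spray of water-diluted EC at predetermined g/a; scoring 3 wk later on graded scale.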
# [2] = tested on: common lambsquater; test: as above; settings: dose 6.3 g/a, three weeks after application
# Outline: as §1
# [3] = tested on: wild oat; test: as above; settings: dose 6.3 g/a, three weeks after application
# Outline: as §1
# [4] = tested on: water foxtail; test: as above; settings: dose 6.3 g/a, three weeks after application
# Outline: as §1
# [5] = tested on: large crabgrass; test: as above; settings: dose 6.3 g/a, three weeks after application
# Outline: as §1
# [6] = tested on: redroot pigweed; test: as above; settings: dose 6.3 g/a, three weeks after application
# Outline: as §1
# [7] = tested on: velvetleaf; test: as above; settings: dose 6.3 g/a, three weeks after application
# Outline: as §1
# [8] = tested on: beadstraw; test: as above; settings: dose 6.3 g/a, three weeks after application
# Outline: as §1
# [9] = tested on: giant foxtail; test: as above; settings: dose 6.3 g/a, three weeks after application
# Outline: as §1
# [10] = tested on: common ragweed; test: as above; settings: dose 6.3 g/a, three weeks after application
# Outline: as §1
# [11] = tested on: Italian ryegrass; test: as above; settings: dose 6.3 g/a, three weeks after application
# Outline: as §1
# [12] = tested on: barnyardgrass; test: as above; settings: dose 6.3 g/a, three weeks after application
# Outline: as §1
# [13] = tested on: posumbu knotweed; test: as above; settings: dose 6.3 g/a, three weeks after application
# Outline: as §1
# [14] = tested on: common chickweed; test: Test Example 3: herbicidal effects in soil treatment; settings: dose 6.3 g/a
# Outline: (§2)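 Seeds were sown in sterilized diluvial soil and covered with about 1.5 cm of soil. Compounds, formulated as emulsifiable concentrates and diluted with water, were sprayed evenly over the soil surface at set doses in g/a. Herbicidal effect was scored on a rating scale three weeks later.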
# [15] = tested on: common lambsquater; test: as above; settings: dose 6.3 g/a
# Outline: as §2
# [16] = tested on: wild oat; test: as above; settings: dose 6.3 g/a
# Outline: as §2
# [17] = tested on: water foxtail; test: as above; settings: dose 6.3 g/a
# Outline: as §2
# [18] = tested on: large crabgrass; test: as above; settings: dose 6.3 g/a
# Outline: as §2
# [19] = tested on: redroot pigweed; test: as above; settings: dose 6.3 g/a
# Outline: as §2
# [20] = tested on: velvetleaf; test: as above; settings: dose 6.3 g/a
# Outline: as §2
# [21] = tested on: giant foxtail; test: as above; settings: dose 6.3 g/a
# Outline: as §2
# [22] = tested on: common ragweed; test: as above; settings: dose 6.3 g/a
# Outline: as §2
# [23] = tested on: Italian ryegrass; test: as above; settings: dose 6.3 g/a
# Outline: as §2
# [24] = tested on: barnyardgrass; test: as above; settings: dose 6.3 g/a
# Outline: as §2
# [25] = tested on: posumbu knotweed; test: as above; settings: dose 6.3 g/a
# Outline: as §2
# [26] = tested on: bulrush; test: Test Example 2: herbicidal effects during the vegetation period under submerged conditions; settings: treatment during the vegetation period under submerged conditions; dose 2.52 g/a
# Outline: (§3)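 Barnyardgrass, bulrush and ducksalad were co-sown in alluvial soil flooded to 4 cm and grown in a greenhouse at 25 to 30° C. At the 1- or 2-leaf stage, water-diluted emulsifiable concentrates went onto the water surface at set doses (g/a). Herbicidal effect was scored three weeks later on a graded scale.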
# [27] = tested on: barnyardgrass; test: as above; settings: treatment during the vegetation period under submerged conditions; dose 2.52 g/a
# Outline: as §3
# [28] = tested on: ducksalad; test: as above; settings: treatment during the vegetation period under submerged conditions; dose 2.52 g/a
# Outline: as §3
# [29] = tested on: bulrush; test: Test Example 1: herbicidal effects in preemergence treatment under submerged conditions; settings: dose 2.52 g/a
# Outline: (§4)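 Alluvial soil flooded to 4 cm depth; barnyardgrass, bulrush and ducksalad sown and 2.5-leaf rice seedlings transplanted. Same day, water-diluted emulsifiable concentrates applied to the water surface at set doses (g/a). Kept at 25–30 °C in greenhouse; effects scored 0–5 by mortality after three weeks.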
# [30] = tested on: barnyardgrass; test: as above; settings: dose 2.52 g/a
# Outline: as §4
# [31] = tested on: ducksalad; test: as above; settings: dose 2.52 g/a
# Outline: as §4
SMILES,"N: common chickweed, herbicidal effect [1]","L: common lambsquater, herbicidal effect [2]","F: wild oat, herbicidal effect [3]","G: water foxtail, herbicidal effect [4]","D: large crabgrass, herbicidal effect [5]","K: redroot pigweed, herbicidal effect [6]","I: velvetleaf, herbicidal effect [7]","O: beadstraw, herbicidal effect [8]","E: giant foxtail, herbicidal effect [9]","J: common ragweed, herbicidal effect [10]","H: Italian ryegrass, herbicidal effect [11]","A: barnyardgrass, herbicidal effect [12]","M: posumbu knotweed, herbicidal effect [13]","N: common chickweed, herbicidal effect (evaluation scale 0-5) [14]","L: common lambsquater, herbicidal effect (evaluation scale 0-5) [15]","F: wild oat, herbicidal effect (evaluation scale 0-5) [16]","G: water foxtail, herbicidal effect (evaluation scale 0-5) [17]","D: large crabgrass, herbicidal effect (evaluation scale 0-5) [18]","K: redroot pigweed, herbicidal effect (evaluation scale 0-5) [19]","I: velvetleaf, herbicidal effect (evaluation scale 0-5) [20]",other results
"O=C1COCCN1Cc1ccccc1NS(=O)(=O)C(F)(F)F [Compound I-1, 4-(2-trifluoromethanesulfonylaminobenzyl)-1,4-oxazinan-3-one]",4 (mortality of at least 70% and less than 90%),5 (mortality of 90% or above (nearly complete death)),3 (mortality of at least 40% and less than 70%),5 (mortality of 90% or above (nearly complete death)),5 (mortality of 90% or above (nearly complete death)),3 (mortality of at least 40% and less than 70%),5 (mortality of 90% or above (nearly complete death)),5 (mortality of 90% or above (nearly complete death)),5 (mortality of 90% or above (nearly complete death)),4 (mortality of at least 70% and less than 90%),5 (mortality of 90% or above (nearly complete death)),5 (mortality of 90% or above (nearly complete death)),5 (mortality of 90% or above (nearly complete death)),5 (mortality of 90% or above (nearly complete death)),5 (mortality of 90% or above (nearly complete death)),4 (mortality of at least 70% and less than 90%),5 (mortality of 90% or above (nearly complete death)),5 (mortality of 90% or above (nearly complete death)),5 (mortality of 90% or above (nearly complete death)),5 (mortality of 90% or above (nearly complete death)),"E: giant foxtail, herbicidal effect (evaluation scale 0-5) [21]: 5 (mortality of 90% or above (nearly complete death)); J: common ragweed, herbicidal effect (evaluation scale 0-5) [22]: 4 (mortality of at least 70% and less than 90%); H: Italian ryegrass, herbicidal effect (evaluation scale 0-5) [23]: 5 (mortality of 90% or above (nearly complete death)); A: barnyardgrass, herbicidal effect (evaluation scale 0-5) [24]: 5 (mortality of 90% or above (nearly complete death)); M: posumbu knotweed, herbicidal effect (evaluation scale 0-5) [25]: 5 (mortality of 90% or above (nearly complete death)); B: bulrush, herbicidal effect (evaluation scale 0-5) [26]: 5 (mortality of 90% or above (nearly complete death)); A: barnyardgrass, herbicidal effect (evaluation scale 0-5) [27]: 5 (mortality of 90% or above (nearly complete death)); C: ducksalad, herbicidal effect (evaluation scale 0-5) [28]: 5 (mortality of 90% or above (nearly complete death)); B: bulrush, herbicidal effect (evaluation scale 0-5) [29]: 5 (mortality of 90% or above (nearly complete death)); A: barnyardgrass, herbicidal effect (evaluation scale 0-5) [30]: 5 (mortality of 90% or above (nearly complete death)); C: ducksalad, herbicidal effect (evaluation scale 0-5) [31]: 5 (mortality of 90% or above (nearly complete death))"
"CC1OCCN(Cc2ccccc2NS(=O)(=O)C(F)(F)F)C1=O (centres unmarked) [Compound I-4, 2-methyl-4-(2-trifluoromethanesulfonylaminobenzyl)-1,4-oxazinan-3-one]",4 (mortality of at least 70% and less than 90%),4 (mortality of at least 70% and less than 90%),0 (mortality of less than 5% (almost ineffective)),5 (mortality of 90% or above (nearly complete death)),5 (mortality of 90% or above (nearly complete death)),3 (mortality of at least 40% and less than 70%),5 (mortality of 90% or above (nearly complete death)),4 (mortality of at least 70% and less than 90%),4 (mortality of at least 70% and less than 90%),4 (mortality of at least 70% and less than 90%),2 (mortality of at least 20% and less than 40%),5 (mortality of 90% or above (nearly complete death)),3 (mortality of at least 40% and less than 70%),5 (mortality of 90% or above (nearly complete death)),5 (mortality of 90% or above (nearly complete death)),0 (mortality of less than 5% (almost ineffective)),5 (mortality of 90% or above (nearly complete death)),5 (mortality of 90% or above (nearly complete death)),4 (mortality of at least 70% and less than 90%),4 (mortality of at least 70% and less than 90%),"E: giant foxtail, herbicidal effect (evaluation scale 0-5) [21]: 3 (mortality of at least 40% and less than 70%); J: common ragweed, herbicidal effect (evaluation scale 0-5) [22]: 5 (mortality of 90% or above (nearly complete death)); H: Italian ryegrass, herbicidal effect (evaluation scale 0-5) [23]: 3 (mortality of at least 40% and less than 70%); A: barnyardgrass, herbicidal effect (evaluation scale 0-5) [24]: 4 (mortality of at least 70% and less than 90%); M: posumbu knotweed, herbicidal effect (evaluation scale 0-5) [25]: 4 (mortality of at least 70% and less than 90%); B: bulrush, herbicidal effect (evaluation scale 0-5) [26]: 5 (mortality of 90% or above (nearly complete death)); A: barnyardgrass, herbicidal effect (evaluation scale 0-5) [27]: 5 (mortality of 90% or above (nearly complete death)); C: ducksalad, herbicidal effect (evaluation scale 0-5) [28]: 5 (mortality of 90% or above (nearly complete death)); B: bulrush, herbicidal effect (evaluation scale 0-5) [29]: 5 (mortality of 90% or above (nearly complete death)); A: barnyardgrass, herbicidal effect (evaluation scale 0-5) [30]: 5 (mortality of 90% or above (nearly complete death)); C: ducksalad, herbicidal effect (evaluation scale 0-5) [31]: 5 (mortality of 90% or above (nearly complete death))"
